Assay results taken from patent publication US8461328B2, “Tricyclic heterocyclic compounds, compositions and methods of use thereof” (Genentech, Inc., priority 2010, dated 2013).
pKi: −log10 of the molar value. Where two headings read alike, the source gives them in different places.

Columns and labels:
Assay type in all cases: biochemical
JAK2 = target: T1, JAK2 (Homo sapiens, UniProt O60674); assay: JAK2 inhibition (Table 4); details: read-out: JAK2 Ki
T1 construct: made in house; host or cells: SF9 insect cells (baculovirus)

TYK2 = target: T2, TYK2 (Homo sapiens, UniProt P29597); assay: TYK2 inhibition (Table 4)
T2 construct: made in house; host or cells: SF9 insect cells (baculovirus)
T2 sequence (P29597 873-1187): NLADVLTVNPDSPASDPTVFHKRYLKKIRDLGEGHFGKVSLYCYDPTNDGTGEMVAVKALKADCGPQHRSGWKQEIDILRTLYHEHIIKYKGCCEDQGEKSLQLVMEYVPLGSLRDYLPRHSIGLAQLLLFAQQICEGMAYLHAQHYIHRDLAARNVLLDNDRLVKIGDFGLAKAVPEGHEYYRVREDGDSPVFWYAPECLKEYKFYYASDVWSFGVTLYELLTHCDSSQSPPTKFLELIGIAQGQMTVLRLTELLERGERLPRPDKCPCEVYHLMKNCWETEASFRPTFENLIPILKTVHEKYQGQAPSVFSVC

JAK3 = target: T3, JAK3 (Homo sapiens, UniProt P52333); assay: JAK3 inhibition (Table 4)
T3 construct: made in house; host or cells: SF9 insect cells (baculovirus)

JAK1 = target: T4, JAK1 (Homo sapiens, UniProt P23458); assay: JAK1 inhibition (Table 4)
T4 construct: made in house; host or cells: SF9 insect cells (baculovirus)
T4 sequence (P23458 852-1154): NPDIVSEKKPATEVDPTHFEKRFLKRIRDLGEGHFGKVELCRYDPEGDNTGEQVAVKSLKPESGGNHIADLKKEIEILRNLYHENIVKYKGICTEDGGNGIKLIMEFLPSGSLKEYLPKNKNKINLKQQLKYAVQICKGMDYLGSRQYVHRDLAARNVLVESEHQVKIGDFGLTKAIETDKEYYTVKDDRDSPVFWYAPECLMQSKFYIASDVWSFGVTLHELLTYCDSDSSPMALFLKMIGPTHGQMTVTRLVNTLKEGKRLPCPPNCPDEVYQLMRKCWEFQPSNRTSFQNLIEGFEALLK

T3 sequence (P52333 783-1124): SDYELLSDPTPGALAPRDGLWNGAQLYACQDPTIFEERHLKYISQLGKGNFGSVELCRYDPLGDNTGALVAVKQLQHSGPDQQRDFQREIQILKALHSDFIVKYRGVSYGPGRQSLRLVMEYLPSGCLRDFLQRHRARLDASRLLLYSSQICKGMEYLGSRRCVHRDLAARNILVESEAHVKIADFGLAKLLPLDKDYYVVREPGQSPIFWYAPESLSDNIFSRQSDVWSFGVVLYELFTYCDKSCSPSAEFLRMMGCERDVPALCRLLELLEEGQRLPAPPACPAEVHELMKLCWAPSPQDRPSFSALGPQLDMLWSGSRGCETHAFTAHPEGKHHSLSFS
T1 sequence (O60674 812-1132): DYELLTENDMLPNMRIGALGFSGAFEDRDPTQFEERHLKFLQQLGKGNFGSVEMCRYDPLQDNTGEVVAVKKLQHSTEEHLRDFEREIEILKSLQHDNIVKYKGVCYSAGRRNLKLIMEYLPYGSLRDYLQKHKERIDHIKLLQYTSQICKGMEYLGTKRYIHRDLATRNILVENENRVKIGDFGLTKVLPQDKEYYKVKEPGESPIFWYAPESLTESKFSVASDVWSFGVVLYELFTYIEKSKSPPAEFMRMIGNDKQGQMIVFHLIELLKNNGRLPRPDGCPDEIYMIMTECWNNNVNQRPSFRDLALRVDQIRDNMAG

| SMILES | pKi (JAK2) | pKi (TYK2) | pKi (JAK3; read-out: JAK3 Ki) | pKi (JAK1; read-out: JAK1 Ki) | pKi (JAK3; JAK3 Ki) | pKi (JAK1; JAK1 Ki) |
| --- | --- | --- | --- | --- | --- | --- |
| CC1(COC(=O)N[C@H]2CC[C@H](n3cnc4cnc5[nH]ccc5c43)CC2)CC1 [Example 348, [4-(6H-1,3,5,6-Tetraaza-as-indacen-1-yl)-cyclohexyl]-carbamic acid 1-methyl-cyclopropylmethyl ester] | 7.82 | 6.83 | 7.11 | 8.25 | – | – |
| CN(Cc1nc2cnc3[nH]ccc3c2n1C1CCN(Cc2ccccc2)CC1)S(C)(=O)=O [Example 203, N-[1-(1-Benzyl-piperidin-4-yl)-1,6-dihydro-1,2,3,5,6-tetraaza-as-indacen-2-ylmethyl]-N-methyl-methanesulfonamide] | 6.84 | 6.59 | 6.98 | 7.71 | – | – |
| O=C(Cc1nc2cnc3[nH]ccc3c2n1C1CCCOC1)NC1CCC1 (racemic) [Example 965, N-Cyclobutyl-2-[1-(tetrahydro-pyran-3-yl)-1,6-dihydro-1,3,5,6-tetraaza-as-indacen-2-yl]-acetamide] | 6.80 | 6.51 | 6.97 | 7.50 | – | – |
| CC(=O)N(C)CCc1nc2cnc3[nH]ccc3c2n1C1CCCCC1 [Example 802, N-[2-(1-Cyclohexyl-1,6-dihydro-1,3,5,6-tetraaza-as-indacen-2-yl)-ethyl]-N-methyl-acetamide] | 7.31 | 7.26 | 7.10 | 8.11 | – | – |
| c1coc(CN2CCC[C@@H](n3cnc4cnc5[nH]ccc5c43)C2)n1 [Example 43, 1-((R)-1-Oxazol-2-ylmethyl-piperidin-3-yl)-1,6-dihydro-1,3,5,6-tetraaza-as-indacene] | 7.14 | 6.69 | 6.75 | 7.37 | – | – |
| CC(=O)N1CC[C@@H](n2cnc3cnc4[nH]ccc4c32)C1 [Example 188, 1-[(R)-3-(6H-1,2,3,5,6-Tetraaza-as-indacen-1-yl)-pyrrolidin-1-yl]-ethanone] | 6.79 | 6.17 | 6.11 | 7.16 | – | – |
| N#Cc1ccc(S(=O)(=O)N2CCC(n3cnc4cnc5[nH]ccc5c43)CC2)cc1 [Example 56, 4-[4-(6H-1,3,5,6-Tetraaza-as-indacen-1-yl)-piperidine-1-sulfonyl]benzonitrile] | 8.00 | 7.19 | 6.47 | 8.42 | – | – |
| CC(O)c1nc2cnc3[nH]ccc3c2n1C1CCCN(C(=O)C2CC2(F)F)C1 (stereo not shown) [Example 790, (2,2-Difluoro-cyclopropyl)-{3-[2-(1-hydroxy-ethyl)-6H-1,3,5,6-tetraaza-as-indacen-1-yl]-piperidin-1-yl}-methanone] | 6.13 | 6.23 | 6.05 | 7.10 | – | – |
| CCS(=O)(=O)N1CCC(n2cnc3cnc4[nH]ccc4c32)CC1 [Example 442, 1-(1-Ethanesulfonyl-piperidin-4-yl)-1,6-dihydro-1,3,5,6-tetraaza-as-indacene] | 8.40 | 7.72 | 6.98 | 8.54 | – | – |
| O=C(C1CCC1)N1CCC[C@@H](n2cnc3cnc4[nH]ccc4c32)C1 [Example 315, Cyclobutyl-[(R)-3-(6H-1,3,5,6-tetraaza-as-indacen-1-yl)-piperidin1-yl]-methanone] | 8.20 | 7.53 | 7.38 | 8.24 | – | – |
| N#Cc1cccc(S(=O)(=O)N2CCC(n3cnc4cnc5[nH]ccc5c43)CC2)c1 [Example 73, 3-[4-(6H-1,3,5,6-Tetraaza-as-indacen-1-yl)-piperidine-1-sulfonyl]benzonitrile] | 9.02 | 8.17 | 7.24 | 9.04 | – | – |
| OC1CCCC(n2nnc3cnc4[nH]ccc4c32)C1 (single isomer, unassigned) [Example 551, 3-(6H-1,2,3,5,6-Pentaaza-as-indacen-1-yl)-cyclohexanol] | 7.72 | 7.05 | 6.89 | 7.87 | – | – |
| CS(=O)(=O)CCN1CCC[C@@H](n2cnc3cnc4[nH]ccc4c32)C1 [Example 57, 1-[(R)-1-(2-Methanesulfonyl-ethyl)-piperidin-3-yl]-1,6-dihydro-1,3,5,6-tetraaza-as-indacene] | 8.04 | 7.34 | 7.92 | 8.28 | – | – |
| C[C@@H](O)c1nc2cnc3[nH]ccc3c2n1[C@H]1CC[C@H](OC(=O)N(C)C)CC1 [Example 609, Trans dimethyl-carbamic acid 4-[2-((R)-1-hydroxy-ethyl)-6H-1,2,3,5,6-tetraaza-as-indacen-1-yl]-cyclohexyl ester] | 6.19 | 6.04 | 6.15 | 7.01 | – | – |

The next lines start with the values.

| pKi (JAK2) | pKi (TYK2) | pKi (JAK3; read-out: JAK3 Ki) | pKi (JAK1; read-out: JAK1 Ki) | pKi (JAK3; JAK3 Ki) | pKi (JAK1; JAK1 Ki) | SMILES |
| --- | --- | --- | --- | --- | --- | --- |
| 7.25 | 6.38 | 7.55 | 8.14 | – | – | CCOC(=O)NCCc1nc2cnc3[nH]ccc3c2n1C1CCN(CC)CC1(F)F (single isomer, unassigned) [Example 680, {2-[1-(1-Ethyl-3,3-difluoro-piperidin-4-yl)-1,6-dihydro-1,2,3,5,6-tetraaza-as-indacen-2-yl]-ethyl}-carbamic acid ethyl ester] |
| 7.07 | 6.38 | 6.99 | 7.86 | – | – | N#CCCN1CCC(n2c(CNS(=O)(=O)C3CCCC3)nc3cnc4[nH]ccc4c32)CC1 [Example 499, Cyclopentanesulfonic acid {1-[1-(2-cyano-ethyl)-piperidin-4-yl]-1,6-dihydro-1,3,5,6-tetraaza-as-indacen-2-ylmethyl}-amide] |
| 7.63 | 7.06 | 7.49 | 8.19 | – | – | N#CCCN1CCC(n2c(Cn3cccn3)nc3cnc4[nH]ccc4c32)CC1 [Example 205, 3-[4-(2-Pyrazol-1-ylmethyl-6H-1,2,3,5,6-tetraaza-as-indacen-1-yl)-piperidin-1-yl]-propionitrile] |
| 7.64 | 7.01 | 7.45 | 8.02 | – | – | CC(CC#N)N1CCC(n2c(CC3CC3)nc3cnc4[nH]ccc4c32)CC1 (racemic) [Example 401, 3-[4-(2-Cyclopropylmethyl-6H-1,3,5,6-tetraaza-as-indacen-1-yl)-piperidin-1-yl]-butyronitrile] |
| 8.03 | 8.35 | 7.88 | 8.72 | – | – | OCc1nc2cnc3[nH]ccc3c2n1C1CCN(CC(F)F)CC1 [Example 897, {1-[1-(2,2-Difluoro-ethyl)-piperidin-4-yl]-1,6-dihydro-1,3,5,6-tetraaza-as-indacen-2-yl}-methanol] |
| 7.38 | 6.96 | 7.13 | 7.80 | – | – | OCCOc1nc2cnc3[nH]ccc3c2n1C1CCCOC1 (racemic) [Example 780, 2-[1-(Tetrahydro-pyran-3-yl)-1,6-dihydro-1,3,5,6-tetraaza-as-indacen-2-yloxy]-ethanol] |
| 7.74 | 6.93 | 7.58 | 8.45 | – | – | CC(=O)NCCc1nc2cnc3[nH]ccc3c2n1C1CCN(CCC#N)CC1 [Example 379, N-(2-{1-[1-(2-Cyano-ethyl)-piperidin-4-yl]-1,6-dihydro-1,3,5,6-tetraaza-as-indacen-2-yl}-ethyl)-acetamide] |
| 8.04 | 7.16 | 8.00 | 8.10 | – | – | N#CCCN1CCC(n2c(C(F)(F)F)nc3cnc4[nH]ccc4c32)CC1 [Example 256, 3-[4-(-2-Trifluoromethyl-6H-1,3,5,6-tetraaza-as-indacen-1-yl)-piperidin-1-yl]-propionitrile] |
| 7.95 | 7.95 | 7.54 | 8.67 | – | – | COCCN1CC[C@H](n2c([C@@H](C)O)nc3cnc4[nH]ccc4c32)C(F)(F)C1 [Example 1013, (R)-1-{1-[(S)-3,3-Difluoro-1-(2-methoxy-ethyl)-piperidin-4-yl]-1,6-dihydro-1,3,5,6-tetraaza-as-indacen-2-yl}-ethanol] |
| 6.74 | 6.20 | 5.85 | 7.56 | – | – | Cc1nc2cnc3[nH]ccc3c2n1C1CCN(C(C)C)CC1 [Example 547, 1-(1-Isopropyl-piperidin-4-yl)-2-methyl-1,6-dihydro-1,3,5,6-tetraaza-as-indacene] |
| 8.16 | 9.19 | 8.98 | 8.89 | – | – | N#CC1CCC(n2c(CO)nc3cnc4[nH]ccc4c32)CC1 (stereo not shown) [Example 777, 4-(2-Hydroxymethyl-6H-1,3,5,6-tetraaza-as-indacen-1-yl)-cyclohexanecarbonitrile] |
| 7.18 | 7.91 | 6.59 | 8.73 | – | – | C[C@@H](O)c1nc2cnc3[nH]ccc3c2n1[C@H]1CC[C@H](C#N)CC1 [Example 641, trans 4-[2-((R)-1-Hydroxy-ethyl)-6H-1,2,3,5,6-tetraaza-as-indacen-1-yl]-cyclohexanecarbonitrile] |
| 9.05 | 8.06 | 8.40 | 9.07 | – | – | COC1CN(CCC#N)CCC1n1c(C)nc2cnc3[nH]ccc3c21 (racemic) [Example 538, 3-[3-Methoxy-4-(2-methyl-6H-1,3,5,6-tetraaza-as-indacen-1-yl)-piperidin-1-yl]-propionitrile] |
| 9.41 | 9.60 | – | – | 8.45 | 9.89 | N#CC[C@H]1CC[C@H](n2c(CO)nc3cnc4[nH]ccc4c32)CC1 [Example 645, Trans[4-(2-hydroxymethyl-6H-1,2,3,5,6-tetraaza-as-indacen-1-yl)-cyclohexyl]-acetonitrile] |
